Results as given in US10344017B2, “Pyrrolcarboxamide derivatives for the inhibition of ERK5” (CANCER RESEARCH TECHNOLOGY LIMITED, priority 2014, dated 2019).

Target: T1, ERK5 (Homo sapiens, UniProt Q13164)
T1 construct: made in house
Assay: ERK5 IMAP assay (fluorescence polarisation)
Format: biochemical
Conditions: average (e.g. geometric mean) where more than one data point; read-out: ERK5 IC50

T1 sequence (Q13164 whole entry): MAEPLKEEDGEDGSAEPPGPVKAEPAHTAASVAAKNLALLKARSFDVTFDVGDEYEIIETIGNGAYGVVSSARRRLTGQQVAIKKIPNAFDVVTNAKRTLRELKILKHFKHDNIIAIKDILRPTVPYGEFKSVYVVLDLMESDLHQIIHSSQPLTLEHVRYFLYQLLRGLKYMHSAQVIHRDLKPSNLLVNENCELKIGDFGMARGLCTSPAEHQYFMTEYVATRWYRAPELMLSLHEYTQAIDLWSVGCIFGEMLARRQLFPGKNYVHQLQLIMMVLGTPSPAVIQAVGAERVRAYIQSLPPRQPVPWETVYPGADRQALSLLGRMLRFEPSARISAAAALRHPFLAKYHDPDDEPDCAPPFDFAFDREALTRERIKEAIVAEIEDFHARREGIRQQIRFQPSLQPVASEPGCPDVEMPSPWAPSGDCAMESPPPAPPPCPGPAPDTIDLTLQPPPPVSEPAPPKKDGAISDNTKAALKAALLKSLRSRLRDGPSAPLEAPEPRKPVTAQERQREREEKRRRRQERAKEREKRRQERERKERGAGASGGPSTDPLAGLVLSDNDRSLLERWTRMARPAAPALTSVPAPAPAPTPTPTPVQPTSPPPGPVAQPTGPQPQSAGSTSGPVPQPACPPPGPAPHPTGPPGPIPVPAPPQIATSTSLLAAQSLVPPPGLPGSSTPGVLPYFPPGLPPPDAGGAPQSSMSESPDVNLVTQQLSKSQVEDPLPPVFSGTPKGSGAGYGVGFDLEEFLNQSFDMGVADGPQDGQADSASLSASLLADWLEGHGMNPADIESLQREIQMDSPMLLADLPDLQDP

Work on `CC(=O)OC1CCN(c2ncc(NC(=O)c3cc(C(=O)c4c(Cl)ccc(Cl)c4F)c[nH]3)cn2)CC1` [Example 22, 1-(5-(4-(3,6-Dichloro-2-fluorobenzoyl)-1H-pyrrole-2-carboxamido)pyrimidin-2-yl)piperidin-4-yl acetate] yielded an IC50 of 9660 nM.
Work on `O=C(NC1CCN(c2ncccn2)CC1)c1cc(C(=O)c2c(F)cccc2Cl)c[nH]1` [Example 10, 4-(2-Chloro-6-fluorobenzoyl)-N-(1-(pyrimidin-2-yl)piperidin-4-yl)-1H-pyrrole-2-carboxamide] yielded an IC50 of 264 nM.
In the case of `O=C(Nc1cnn(CCO)c1)c1cc(C(=O)c2c(Cl)ccc(Cl)c2F)c[nH]1` [Example 235, 4-(3,6-Dichloro-2-fluorobenzo)-N-(1-(2-hydroxyethyl)-1H-pyrazol-4-yl)-1H-pyrrole-2-carboxamide], the IC50 is reported as 61.2 nM.
`O=C(Nc1ccc[n+]([O-])c1)c1cc(C(=O)c2c(F)cccc2F)c[nH]1` [Example 128, 3-(4-(2,6-Difluorobenzoyl)-1H-pyrrole-2-carboxamido)pyridine 1-oxide] showed an IC50 of 13800 nM.
With `O=C(Nc1cnc(N2CCC(O)CC2)nc1)c1cc(C(=O)c2c(F)cccc2Cl)c[nH]1` [Example 28, 4-(2-Chloro-6-fluorobenzoyl)-N-(2-(4-hydroxypiperidin-1-yl)pyrimidin-5-yl)-1H-pyrrole-2-carboxamide] the IC50 was 2230 nM.
Compound `CN1CCC(NC(=O)c2cc(C(=O)c3cc(Cl)ccc3F)c[nH]2)CC1` [Example 231, 4-(5-Chloro-2-fluorobenzoyl)-N-(1-methylpiperidin-4-yl)-1H-pyrrole-2-carboxamide] has an IC50 of 1940 nM.
In the case of `O=C(Nc1cncnc1)c1cc(C(=O)c2cc(Cl)ccc2F)c[nH]1` [Example 229, 4-(5-Chloro-2-fluorobenzoyl)-N-(pyrimidin-5-yl)-1H-pyrrole-2-carboxamide], the IC50 is reported as 2060 nM.
In the case of `COc1cc(NC(=O)c2cc(C(=O)c3c(F)cccc3Cl)c[nH]2)ccn1` [Example 40, 4-(2-Chloro-6-fluorobenzoyl)-N-(2-methoxypyridin-4-yl)-1H-pyrrole-2-carboxamide], the IC50 is reported as 1830 nM.
`CN1CCC(NC(=O)c2cc(C(=O)c3cc(F)ccc3F)c[nH]2)CC1` [Example 227, 4-(2,5-Difluorobenzoyl)-N-(1-methylpiperidin-4-yl)-1H-pyrrole-2-carboxamide] was tested, and the IC50 was 6160 nM.
Compound `O=C(Nc1cnccc1N1CCCC1)c1cc(C(=O)c2c(F)cccc2Cl)c[nH]1` [Example 92, 4-(2-Chloro-6-fluorobenzoyl)-N-(4-(pyrrolidin-1-yl)pyridin-3-yl)-1H-pyrrole-2-carboxamide] has an IC50 of 16500 nM.
In the case of `CCOc1ccc(Cl)c(C(=O)c2c[nH]c(C(=O)Nc3cccnc3)c2)c1F` [Example 256, 4-(6-Chloro-3-ethoxy-2-fluorobenzoyl)-N-(pyridin-3-yl)-1H-pyrrole-2-carboxamide], the IC50 is reported as 116 nM.
In the case of `O=C(Nc1cccnc1)c1cc(C(=O)c2c(F)ccc(Cl)c2Cl)c[nH]1` [Example 169, 4-(2,3-Dichloro-6-fluorobenzoyl)-N-(pyridin-3-yl)-1H-pyrrole-2-carboxamide], the IC50 is reported as 265 nM.
In the case of `O=C(Nc1cnc(N2CCOCC2)nc1)c1cc(C(=O)c2c(Cl)ccc(Cl)c2F)c[nH]1` [Example 20, 4-(3,6-Dichloro-2-fluorobenzoyl)-N-(2-morpholinopyrimidin-5-yl)-1H-pyrrole-2-carboxamide], the IC50 is reported as 1500 nM.
`O=C(Nc1cccnc1)c1cc(C(=O)c2c(Cl)ccc(OC3CCOC3)c2F)c[nH]1` (stereo not shown) [Example 259, 4-(6-Chloro-2-fluoro-3-((tetrahydrofuran-3-yl)oxy)benzoyl)-N-(pyridin-3-yl)-1H-pyrrole-2-carboxamide] gave an IC50 of 483 nM.
With `COc1ncccc1NC(=O)c1cc(C(=O)c2c(Cl)ccc(Cl)c2F)c[nH]1` [Example 84, 4-(3,6-Dichloro-2-fluorobenzoyl)-N-(2-methoxypyridin-3-yl)-1H-pyrrole-2-carboxamide] the IC50 was 1180 nM.
`C=Cc1ccc(F)c(C(=O)c2c[nH]c(C(=O)Nc3cccnc3)c2)c1F` [Example 165, 4-(2,6-Difluoro-3-vinylbenzoyl)-N-(pyridin-3-yl)-1H-pyrrole-2-carboxamide] was tested, and the IC50 was 1580 nM.
